The values below come from patent US9364479B2, “Use of a receptor-type kinase modulator for treating polycystic kidney disease” (SYMPHONY EVOLUTION, INC., priority 2010, dated 2016).

The inhibition is the relative decrease from the control value, in per cent. In general, ED50 refers to the midpoint of the dose-response relation. A higher ED50 goes with a need for a large dose.

For series [1], the target named is T1, Norepinephrine Transporter (Homo sapiens, UniProt P23975).
T1 construct: NovaScreen
Nature of the series: NovaScreen assay. The series is classed as binding. The following applies: read-out: Inhibition, 10 μM XL-647.

For series [2], the system named is ERK phosphorylation (H1975 cells). Nature of the series: Immunoblot analysis of H1975 cell lysates. The series is classed as cell-based, human. How it is done: (§1) For the H1975 immunoblot studies, 3×10^5 cells were plated in each well (12-well plate) and incubated for 16 h in complete RPMI 1640, rinsed with fetal bovine serum-free RPMI 1640, and incubated with serial dilutions of test compounds in fetal bovine serum-free medium for 2 h followed by stimulation with 100 ng/mL human recombinant EGF for 10 min. Whole-cell protein lysates were prepared as described above and centrifuged for 10 min at 13,000×g at 4° C. to remove any insoluble material. Total protein was determined using bicinchoninic acid reagent and an equal amount of protein was combined with LDS loading buffer (Invitrogen) according to the manufacturer's instructions. Proteins were separated by gel electrophoresis on 4% to 15% polyacrylamide gels, transferred to nitrocellulose membranes, and detected by immunoblotting. Antibody:antigen complexes were detected using chemiluminescence. The following antibodies from Cell Signaling Technology were used at a 1:1,000 dilution: anti-EGFR, anti-pEGFR^Tyr1068, anti-AKT, anti-pAKT^Ser473, anti-ERK, and anti-pERK^Thr202/Tyr204. The anti-β-actin primary antibody (Accurate Chemical and Scientific) was used at 1:10,000 and the horseradish peroxidase-coupled secondary antibodies were purchased from Jackson ImmunoResearch and used at 1:5,000.
In general terms: In western blotting, separated proteins are transferred to a membrane and probed.

The test system of series [3] is AKT phosphorylation (H1975 cells). Put plainly: Immunoblot analysis of H1975 cell lysates. The class given is cell-based, human. How it is done: as §1
In series [4] the test system is Muscarinic, Non-selective, Peripheral. Nature of the series: NovaScreen assay. The series is classed as binding.
Series [5] deals with T2, p-Y-HER2/ErbB2 (Homo sapiens, UniProt P04626).
T2 construct: endogenous in cells; host or cells: BT474 tumour xenografts in mice (per the earlier reading)
Put plainly: In vivo receptor phosphorylation, BT474 xenografts. The arrangement: species or system mouse. The following applies: Phospho.

Series [6] addresses CYP3A4 (Homo sapiens, UniProt P08684). The following applies: microsomes.
Series [7] addresses EphA2 (Homo sapiens, UniProt P29317). Nature of the series: EphA2 autophosphorylation ELISA, PC-3 cells. The class given is cell-based. The following applies: read-out: Cellular IC50, autophosphorylation. In general terms: ELISA stands for enzyme-linked immunosorbent assay.
Protocol: The EphA2 autophosphorylation ELISA utilized PC-3 (ATCC) cells. Cells were seeded at 2.5×10^4 cells/well onto 96-well microtiter plates (Costar 3904), in DMEM (Cellgro) containing 10% FBS (Heat-Inactivated, Hyclone), 1% penicillin-streptomycin (Cellgro), and 1% NEAA solution (Cellgro). The cells were then incubated at 37° C., 5% CO2 for 16 h. Growth media was replaced with serum-free DMEM and cells were incubated for an additional 24 hr. […] Negative control wells were not treated with growth factor. After treatment, media was removed, the cell monolayer washed with cold PBS and immediately lysed with cold lysis buffer. Lysates were centrifuged and incubated into 96-well streptavidin-coated plates (Pierce) coated with biotin-conjugated, mouse anti-phosphotyrosine, PY20 (2 μg/ml, Calbiochem). Plates were incubated with rabbit polyclonal anti-EphA2, C-20 (1:500, Santa Cruz Biotechnology, Inc), followed by secondary antibody (HRP-conjugated, goat anti-rabbit IgG, 1:1000 from Cell Signaling) and the addition of a luminol-based substrate solution. Plates were read with a Victor spectrophotometer (Wallac).
Series [8] addresses T3, Bradykinin, BK2 (Homo sapiens, UniProt P30411).
T3 construct: NovaScreen
Nature of the series: NovaScreen assay. The class given is binding. The following applies: read-out: Inhibition, 10 μM XL-647.

Series [9] has as its system Glycine, Strychnine-sensitive. Put plainly: NovaScreen assay. The series is classed as binding.
Series [10] concerns the target T4, Muscarinic, M2 (Human Recombinant) (Homo sapiens, UniProt P08172).
T4 construct: NovaScreen
Nature of the series: NovaScreen assay. The series is classed as binding.

In series [11] the test system is HT-29 human tumor xenograft. Put plainly: HT-29 xenograft, tumor growth. The class given is in vivo. The following applies: Mus musculus. How it is done:
(§2) The response of tumors to treatment was determined by comparing the mean tumor weight of the treatment group with the appropriate control group. Percentage inhibition of tumor growth was determined with the following formula: Percentage inhibition=100×[1−(Xf−Xo)/(Yf−Yo)], where Xf and Yf are the mean tumor weights of the treatment and control groups, respectively, on day f, and Xo and Yo are the mean tumor weights of treatment and control groups respectively, on day zero (staged tumor weights after grouping)

The target of series [12] is KDR (Homo sapiens, UniProt P35968). Put plainly: Luciferase-coupled chemiluminescence kinase assay. The arrangement: residues D807-V1356 of human KDR, Proqinase; purchased Proqinase. The series is classed as biochemical. Particulars: ATP at Km.
Protocol: Dose-response experiments were done using 10 different inhibitor concentrations in 384-well microtiter plates. The ATP concentration used for each assay was equivalent to the Km for each kinase.
A Luciferase-coupled chemiluminescence assay was used to measure EGFR and KDR (VEGFR2) activity. Kinase activity was measured as the percentage of ATP consumed following the kinase reaction using luciferase-luciferin-coupled chemiluminescence. Reactions were conducted in 384-well white, medium-binding microtiter plates (Greiner). […] The reaction mixture was incubated at room temperature for 4 h. Following the kinase reaction, a 20 μL aliquot of Kinase Glo (Promega) was added and luminescence signal was measured using a Victor2 plate reader (Perkin-Elmer). Total ATP consumption was limited to 50%.
Series [13] has as its target c-Kit (Homo sapiens, UniProt P10721). Nature of the series: c-Kit autophosphorylation ELISA, transfected HeLa cells. The following applies: read-out: Cellular IC50, autophosphorylation. The series is classed as cell-based. The arrangement: expressed in transfected cells; host or cells: HeLa. The protocol:
The c-Kit autophosphorylation ELISA utilized HeLa (ATCC) cells. Cells were seeded at 6×10^5 cells/well onto 100 mm dish. 24 hours later, HeLa cells were transfected with a mammalian expression plasmid containing a CMV promoter operably linked to the open reading frame of human c-kit with a Flag epitope tag on the C-terminus 24 hours later, c-Kit transfected HeLa cells were trypsinized and re-seeded at 6×10^3 cells/well into 96-well microtiter plates (Costar 3904), in DMEM (Cellgro) containing 10% FBS (Heat-Inactivated, Hyclone), 1% penicillin-streptomycin (Cellgro), and 1% NEAA solution (Cellgro). The cells were then incubated at 37° C., 5% CO2 for 24 hr. […] Negative control wells were left unstimulated. Following stimulation, media was removed, the cell monolayer washed with cold PBS and immediately lysed with cold lysis buffer. Lysates were incubated in 96-well streptavidin-coated plates (Pierce) coated with biotin-conjugated, goat anti-human c-Kit (1 μg/ml, R&D Systems). Plates were washed 3× with TBST and incubated either with HRP-conjugated anti-phosphotyrosine (1:10,000, Zymed Laboratories, Inc) or HRP-conjugated anti-Flag(M2) (1:2,000, Sigma). Plates were washed again as described above followed by the addition of a luminol-based substrate solution and read with a Victor spectrophotometer (Wallac).

Series [14] concerns subjects with advanced solid tumors. Put plainly: Clinical Study XL-647-002 (Phase 1, daily dosing).
Series [15] deals with PC-3 human tumor xenograft. Nature of the series: PC-3 xenograft, tumor growth. The series is classed as in vivo. The following applies: Mus musculus; qd × 28. The protocol:
as §2

In series [16] the test system is Serotonin, Non-selective. Put plainly: NovaScreen assay. The class given is binding.

Bounds are passed on as bounds.

T2 sequence (P04626 23-1255): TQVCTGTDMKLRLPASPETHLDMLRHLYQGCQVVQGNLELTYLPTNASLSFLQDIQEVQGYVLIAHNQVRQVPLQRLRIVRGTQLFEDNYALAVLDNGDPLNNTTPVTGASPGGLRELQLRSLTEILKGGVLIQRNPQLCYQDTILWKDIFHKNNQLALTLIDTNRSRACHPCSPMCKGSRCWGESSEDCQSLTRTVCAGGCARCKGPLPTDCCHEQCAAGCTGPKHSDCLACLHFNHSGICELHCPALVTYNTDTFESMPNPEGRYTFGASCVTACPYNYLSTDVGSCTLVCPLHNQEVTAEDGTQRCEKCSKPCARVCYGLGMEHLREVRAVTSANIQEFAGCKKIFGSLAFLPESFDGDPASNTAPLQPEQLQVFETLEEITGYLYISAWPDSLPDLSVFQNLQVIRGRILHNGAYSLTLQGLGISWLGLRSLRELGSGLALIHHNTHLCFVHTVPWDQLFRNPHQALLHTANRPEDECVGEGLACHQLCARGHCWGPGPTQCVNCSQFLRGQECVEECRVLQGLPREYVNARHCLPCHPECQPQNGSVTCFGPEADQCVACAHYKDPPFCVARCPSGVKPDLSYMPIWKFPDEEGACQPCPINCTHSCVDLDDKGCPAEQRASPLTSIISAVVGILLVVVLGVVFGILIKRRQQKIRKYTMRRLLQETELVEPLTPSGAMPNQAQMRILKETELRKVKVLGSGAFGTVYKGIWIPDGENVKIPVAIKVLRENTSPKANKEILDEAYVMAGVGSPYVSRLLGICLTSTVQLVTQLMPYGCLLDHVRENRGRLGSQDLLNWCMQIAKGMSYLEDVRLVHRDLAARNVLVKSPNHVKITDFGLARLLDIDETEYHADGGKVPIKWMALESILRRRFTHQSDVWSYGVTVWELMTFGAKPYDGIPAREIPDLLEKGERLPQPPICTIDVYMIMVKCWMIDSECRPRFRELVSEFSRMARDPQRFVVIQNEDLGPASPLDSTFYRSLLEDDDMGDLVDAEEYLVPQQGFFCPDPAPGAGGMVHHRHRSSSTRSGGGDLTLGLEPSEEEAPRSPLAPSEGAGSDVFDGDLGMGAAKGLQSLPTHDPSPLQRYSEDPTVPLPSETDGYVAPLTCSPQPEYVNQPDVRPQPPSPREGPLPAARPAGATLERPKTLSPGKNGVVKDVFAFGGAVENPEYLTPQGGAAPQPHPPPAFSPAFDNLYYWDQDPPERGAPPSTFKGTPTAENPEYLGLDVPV
T4 sequence (P08172 whole entry): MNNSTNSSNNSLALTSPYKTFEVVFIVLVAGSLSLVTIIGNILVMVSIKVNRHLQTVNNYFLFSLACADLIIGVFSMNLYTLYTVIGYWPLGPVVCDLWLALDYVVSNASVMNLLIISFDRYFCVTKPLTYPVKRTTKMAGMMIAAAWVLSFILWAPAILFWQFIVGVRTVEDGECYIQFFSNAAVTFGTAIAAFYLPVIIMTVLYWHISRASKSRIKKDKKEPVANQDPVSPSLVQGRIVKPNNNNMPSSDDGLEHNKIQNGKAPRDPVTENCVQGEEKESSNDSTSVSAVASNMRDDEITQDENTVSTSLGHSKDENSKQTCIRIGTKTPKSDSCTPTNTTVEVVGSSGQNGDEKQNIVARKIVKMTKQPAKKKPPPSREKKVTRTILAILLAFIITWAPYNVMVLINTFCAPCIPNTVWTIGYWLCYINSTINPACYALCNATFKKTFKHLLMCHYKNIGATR
T1 sequence (P23975 whole entry, species assumed): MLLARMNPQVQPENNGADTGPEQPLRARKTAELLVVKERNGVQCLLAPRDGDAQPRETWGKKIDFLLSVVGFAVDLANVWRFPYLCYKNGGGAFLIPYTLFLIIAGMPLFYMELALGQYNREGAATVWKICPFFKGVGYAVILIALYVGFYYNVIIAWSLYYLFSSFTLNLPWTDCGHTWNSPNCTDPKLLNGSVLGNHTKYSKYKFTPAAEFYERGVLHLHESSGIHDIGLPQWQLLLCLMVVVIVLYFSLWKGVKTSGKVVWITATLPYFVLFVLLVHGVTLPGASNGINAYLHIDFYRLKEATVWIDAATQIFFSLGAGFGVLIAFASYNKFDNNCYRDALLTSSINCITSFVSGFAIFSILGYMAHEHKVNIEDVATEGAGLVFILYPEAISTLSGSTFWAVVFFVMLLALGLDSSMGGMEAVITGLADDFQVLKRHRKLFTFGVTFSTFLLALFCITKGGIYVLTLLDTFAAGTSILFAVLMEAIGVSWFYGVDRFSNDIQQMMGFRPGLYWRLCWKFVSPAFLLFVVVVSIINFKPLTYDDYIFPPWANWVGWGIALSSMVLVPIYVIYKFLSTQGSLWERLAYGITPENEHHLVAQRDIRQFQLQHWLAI
c-Kit, sequence (P10721 26-976): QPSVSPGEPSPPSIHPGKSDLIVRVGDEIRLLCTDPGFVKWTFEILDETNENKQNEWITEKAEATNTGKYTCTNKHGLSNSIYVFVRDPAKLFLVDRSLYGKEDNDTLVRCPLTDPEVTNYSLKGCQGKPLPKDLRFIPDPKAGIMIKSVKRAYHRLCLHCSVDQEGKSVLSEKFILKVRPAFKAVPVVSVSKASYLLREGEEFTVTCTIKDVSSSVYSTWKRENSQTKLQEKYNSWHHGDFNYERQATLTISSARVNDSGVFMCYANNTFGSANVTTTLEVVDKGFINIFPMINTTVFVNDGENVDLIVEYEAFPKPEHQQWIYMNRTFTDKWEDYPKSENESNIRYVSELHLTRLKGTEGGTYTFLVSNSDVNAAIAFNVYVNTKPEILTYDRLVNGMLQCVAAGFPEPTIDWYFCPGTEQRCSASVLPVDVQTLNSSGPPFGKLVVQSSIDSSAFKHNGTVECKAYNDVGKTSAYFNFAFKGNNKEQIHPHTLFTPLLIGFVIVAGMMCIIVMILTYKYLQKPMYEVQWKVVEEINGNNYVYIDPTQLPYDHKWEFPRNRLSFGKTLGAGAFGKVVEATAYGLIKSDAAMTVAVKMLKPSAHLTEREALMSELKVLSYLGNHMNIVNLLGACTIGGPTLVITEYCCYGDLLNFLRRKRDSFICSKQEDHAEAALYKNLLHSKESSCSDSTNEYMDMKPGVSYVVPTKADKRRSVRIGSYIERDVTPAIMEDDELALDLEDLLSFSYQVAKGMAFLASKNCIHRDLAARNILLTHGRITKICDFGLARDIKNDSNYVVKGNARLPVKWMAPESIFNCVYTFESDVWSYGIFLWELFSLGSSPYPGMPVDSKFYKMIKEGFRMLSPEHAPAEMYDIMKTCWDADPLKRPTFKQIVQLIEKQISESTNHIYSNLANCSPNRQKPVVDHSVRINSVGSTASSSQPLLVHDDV
CYP3A4, sequence (P08684 whole entry): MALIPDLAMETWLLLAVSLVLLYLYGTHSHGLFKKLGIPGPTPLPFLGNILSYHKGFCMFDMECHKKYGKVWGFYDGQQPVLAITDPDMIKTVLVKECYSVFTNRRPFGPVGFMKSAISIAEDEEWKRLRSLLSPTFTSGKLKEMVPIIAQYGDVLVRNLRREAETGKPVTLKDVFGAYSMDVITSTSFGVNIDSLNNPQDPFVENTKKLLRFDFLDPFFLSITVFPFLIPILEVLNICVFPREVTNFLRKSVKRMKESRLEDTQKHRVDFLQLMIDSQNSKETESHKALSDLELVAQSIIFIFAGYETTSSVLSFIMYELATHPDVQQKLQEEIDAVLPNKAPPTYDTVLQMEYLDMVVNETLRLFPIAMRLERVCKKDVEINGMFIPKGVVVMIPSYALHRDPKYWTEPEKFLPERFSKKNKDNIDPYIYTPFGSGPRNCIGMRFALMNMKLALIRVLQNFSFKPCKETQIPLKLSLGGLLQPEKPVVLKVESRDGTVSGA
EphA2, sequence (P29317 24-976): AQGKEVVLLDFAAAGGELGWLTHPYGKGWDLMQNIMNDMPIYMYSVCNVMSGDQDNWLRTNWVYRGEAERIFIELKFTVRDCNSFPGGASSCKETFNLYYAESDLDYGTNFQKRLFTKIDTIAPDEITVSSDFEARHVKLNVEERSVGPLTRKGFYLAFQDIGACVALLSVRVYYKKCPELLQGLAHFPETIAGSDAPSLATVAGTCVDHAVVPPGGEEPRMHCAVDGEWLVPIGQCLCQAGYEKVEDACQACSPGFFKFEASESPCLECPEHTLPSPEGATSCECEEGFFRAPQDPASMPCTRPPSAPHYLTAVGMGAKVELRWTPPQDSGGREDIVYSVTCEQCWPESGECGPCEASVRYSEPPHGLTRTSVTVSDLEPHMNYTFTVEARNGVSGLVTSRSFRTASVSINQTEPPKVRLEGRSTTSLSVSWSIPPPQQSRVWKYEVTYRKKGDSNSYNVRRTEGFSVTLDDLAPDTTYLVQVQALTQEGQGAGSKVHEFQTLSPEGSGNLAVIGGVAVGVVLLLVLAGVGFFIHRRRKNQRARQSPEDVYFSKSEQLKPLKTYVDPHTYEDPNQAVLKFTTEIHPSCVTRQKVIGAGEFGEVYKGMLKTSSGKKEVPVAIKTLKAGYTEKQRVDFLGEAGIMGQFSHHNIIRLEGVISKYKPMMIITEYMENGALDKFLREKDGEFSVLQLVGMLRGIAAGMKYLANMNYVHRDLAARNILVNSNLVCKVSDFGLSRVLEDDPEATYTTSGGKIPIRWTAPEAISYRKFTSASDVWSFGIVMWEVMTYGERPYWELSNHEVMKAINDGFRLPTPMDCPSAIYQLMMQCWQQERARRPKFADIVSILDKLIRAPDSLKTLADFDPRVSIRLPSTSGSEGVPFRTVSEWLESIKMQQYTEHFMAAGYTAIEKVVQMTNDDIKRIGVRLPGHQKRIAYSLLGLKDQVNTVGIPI

Turning to `COc1cc2c(Nc3ccc(Cl)c(Cl)c3F)ncnc2cc1OC[C@@H]1C[C@@H]2CN(C)C[C@@H]2C1` [XL-647, N-(3,4-dichloro-2-fluorophenyl)-7-({[(3aR,5r,6aS)-2-methyloctahydrocyclopenta[c]pyrrol-5-yl]methyl}oxy)-6-(methyloxy)quinazolin-4-amine], the inhibition at 10 µM in [1] is -5.38%; in series [8], 48.8%; in series [10] (read-out: Inhibition, 10 μM XL-647), 98.7%. Besides, the “phosphorylation of ERK, immunoblot” value in series [2] was “inhibits the phosphorylation of AKT and ERK”. Moreover, the “phosphorylation of AKT, immunoblot” value in series [3] was “inhibits the phosphorylation of AKT and ERK”. Further, the IC50 in series [4] is 2650 nM; in series [5] (in vivo, read-out: Estimated IC50 (plasma concentration)), 3600 nM; in series [7] it was 1100 nM; in series [10], 1180 nM; in series [12] it was 1.5 ± 0.2 nM; in series [13], 90 nM. Besides, the “Inhibition, 10 μM XL-647” value in series [4] (10 μM) came out at 87.74%; in series [9], 12.95%; in [16] it was 24.52%. For the same compound, in series [5], the “Single Dose Duration of Action (100 mg/kg, >50% inhibition)” value is >72 h. Also, the “CYP3A4 substrate, in words” value in series [6] is recorded as “substrate for CYP3A4-mediated metabolism”. Further, the 50% effective dose (ED50) in [11] (HT-29, qd × 14) was found to be 20.2 mg/kg; in [11] (HT-29, qd × 28) it was 16 mg/kg; in series [15], 34 mg/kg. Besides, the “subjects with SD lasting greater than 3 months” value in series [14] (human, in vivo) was determined as 16 subjects. In series [14] (single oral dose daily), the MTD came to 300 mg.
